# US12052991B2, “Substituted pyridinyloxybenzenes and salts thereof and use thereof as herbicidal agents” (Bayer Aktiengesellschaft, priority 2018, dated 2024)
# Tests used:
# Assay type in all cases: in vivo
# [1] = test system: Echinochloa crus-galli (ECHCG); assay: Herbicidal post-emergence action (Table B1); details: rated visually after about 3 weeks, 100% = plants have died, 0% = like control plants
# Procedure, shortened: (§1)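 Greenhouse pot-grown weeds in sandy loam, sprayed at the one-leaf stage (2–3 weeks post-sowing) with WP or EC formulations plus 0.5% additive at 600 l/ha water, at 1280 or 320 g/ha. Visual % activity versus untreated controls rated about 3 weeks later (100% = dead).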
# [2] = test system: Poa annua (POAAN); assay: Herbicidal post-emergence action (Table B3); details: rated visually after about 3 weeks, 100% = plants have died, 0% = like control plants
# Procedure, shortened: as §1
# [3] = test system: Setaria viridis (SETVI); assay: Herbicidal post-emergence action (Table B4); details: 1280 g/ha; rated visually after about 3 weeks; 100% = plants have died, 0% = like control plants
# Procedure, shortened: as §1
# [4] = test system: Abutilon theophrasti (ABUTH); assay: Herbicidal post-emergence action (Table B5); details: rated visually after about 3 weeks, 100% = plants have died, 0% = like control plants
# Procedure, shortened: as §1
# [5] = test system: Amaranthus retroflexus (AMARE); assay: Herbicidal post-emergence action (Table B6); details: visual rating about 3 weeks after treatment, 100% = plants have died, 0% = like control plants
# Procedure, shortened: as §1
# [6] = test system: Matricaria inodora (MATIN); assay: Herbicidal post-emergence action (Table B7); details: 1280 g/ha; rated visually after about 3 weeks; 100% = plants have died, 0% = like control plants
# Method: Seeds of mono- and dicotyledonous weed plants were placed in plastic pots in sandy loam soil (doubly sown with in each case one species of mono- or dicotyledonous weed plants per pot), covered with soil and cultivated in a greenhouse under controlled growth conditions. 2 to 3 weeks after sowing, the test plants were treated at the one-leaf stage. The compounds of the invention, formulated in the form of wettable powders (WP) or as emulsion concentrates (EC), were applied onto the green parts of the plants as aqueous suspension or emulsion with addition of 0.5% additive at a water application rate of 600 liters per hectare (converted). After the test plants had been kept in the greenhouse under optimum growth conditions for about 3 weeks, the activity of the preparations was rated visually in comparison to untreated controls. For example, 100% activity=the plants have died, 0% activity=like control plants. Tables B1 to B12 below show the effects of selected compounds of the general formula (I) according to Table 1 on various harmful plants and an application rate corresponding to 1280 or 320 g/ha, which were obtained by the experimental procedure mentioned above.
# [7] = test system: Stellaria media (STEME); assay: Herbicidal post-emergence action (Table B8); details: visual rating about 3 weeks after treatment, 100% = plants have died, 0% = like control plants
# Procedure, shortened: as §1
# [8] = test system: Alopecurus myosuroides (ALOMY); assay: Herbicidal post-emergence action (Table B9); details: rated visually after about 3 weeks, 100% = plants have died, 0% = like control plants
# Procedure, shortened: as §1
# [9] = test system: Digitaria sanguinalis (DIGSA); assay: Herbicidal post-emergence action (Table B10); details: visual rating about 3 weeks after treatment, 100% = plants have died, 0% = like control plants
# Procedure, shortened: as §1
# [10] = test system: Bassia scoparia (KCHSC); assay: Herbicidal post-emergence action (Table B11); details: visual rating about 3 weeks after treatment, 100% = plants have died, 0% = like control plants
# Procedure, shortened: as §1
# [11] = test system: Echinochloa crus-galli (ECHCG); assay: Herbicidal pre-emergence action, test C (Table C1); details: dosage 1280 g/ha; visual scoring after about 3 weeks; 100% = plants have died, 0% = like control plants
# Procedure, shortened: (§2)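 Compounds formulated as WP or EC were sprayed onto soil covering freshly sown weed seeds at 600 L/ha water with 0.5% additive, at 1280 or 320 g/ha. Pots were kept in a greenhouse. After about 3 weeks, damage was scored visually as % versus untreated controls (100% = plants dead).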
# [12] = test system: Lolium rigidum (LOLRI); assay: Herbicidal pre-emergence action, test C (Table C2); details: visual scoring after about 3 weeks, 100% = plants have died, 0% = like control plants
# Procedure, shortened: as §2
# [13] = test system: Poa annua (POAAN); assay: Herbicidal pre-emergence action, test C (Table C3); details: visual scoring after about 3 weeks, 100% = plants have died, 0% = like control plants
# Procedure, shortened: as §2
# [14] = test system: Setaria viridis (SETVI); assay: Herbicidal pre-emergence action, test C (Table C4); details: visual scoring after about 3 weeks, 100% = plants have died, 0% = like control plants
# Procedure, shortened: as §2
# [15] = test system: Amaranthus retroflexus (AMARE); assay: Herbicidal pre-emergence action, test C (Table C6); details: visual scoring after about 3 weeks, 100% = plants have died, 0% = like control plants
# Procedure, shortened: as §2
# [16] = test system: Matricaria inodora (MATIN); assay: Herbicidal pre-emergence action, test C (Table C7); details: visual scoring after about 3 weeks, 100% = plants have died, 0% = like control plants
# Procedure, shortened: as §2
# [17] = test system: Stellaria media (STEME); assay: Herbicidal pre-emergence action, test C (Table C8); details: visual scoring after about 3 weeks, 100% = plants have died, 0% = like control plants
# Procedure, shortened: as §2
# [18] = test system: Alopecurus myosuroides (ALOMY); assay: Herbicidal pre-emergence action, test C (Table C9); details: visual scoring after about 3 weeks, 100% = plants have died, 0% = like control plants
# Procedure, shortened: as §2
# [19] = test system: Digitaria sanguinalis (DIGSA); assay: Herbicidal pre-emergence action, test C (Table C10); details: visual scoring after about 3 weeks, 100% = plants have died, 0% = like control plants
# Procedure, shortened: as §2
# [20] = test system: Veronica persica (VERPE); assay: Herbicidal pre-emergence action, test C (Table C12); details: visual scoring vs untreated controls
# Procedure, shortened: as §2
# [21] = test system: harmful plants ABUTH, AMARE, ECHCG, LOLRI, MATIN, POAAN, SETVI, STEME, ALOMY, DIGSA, KCHSC and VERPE; assay: Herbicidal post-emergence action, summary of Tables B1-B12; details: application rate of 1280 or 320 g of active ingredient per hectare; summary in words
# Procedure, shortened: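 Greenhouse weeds in sandy loam treated post-emergence at the one-leaf stage, 2–3 weeks after sowing, with WP or EC formulations sprayed with 0.5% additive at 600 L/ha water, 1280 or 320 g/ha. Damage rated visually after about 3 weeks versus untreated controls (0% = like control, 100% = dead).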
# [22] = test system: harmful plants ABUTH, AMARE, ECHCG, LOLRI, MATIN, POAAN, SETVI, STEME, ALOMY, DIGSA, KCHSC and VERPE; assay: Herbicidal pre-emergence action (test C), summary of Tables C1-C12; details: application rate of 1280 or 320 g of active ingredient per hectare; summary in words
# Procedure, shortened: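 Pre-emergence pot test in sandy loam: WP or EC formulations were sprayed onto the covering soil with 0.5% additive at 600 L/ha water, at 1280 or 320 g/ha. Plants were kept in the greenhouse, and activity was rated visually about 3 weeks later as % versus untreated controls (100% = dead).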
# [23] = test system: Veronica persica (VERPE); assay: Herbicidal post-emergence action (Table B12); details: visual rating about 3 weeks after treatment, 100% = plants have died, 0% = like control plants
# Procedure, shortened: as §1
# [24] = test system: Abutilon theophrasti (ABUTH); assay: Herbicidal pre-emergence action, test C (Table C5); details: dosage 1280 g/ha; visual scoring after about 3 weeks; 100% = plants have died, 0% = like control plants
# Procedure, shortened: as §2
SMILES,Post-emergence action against Poa annua (POAAN) ([2]; 320 g/ha),Post-emergence action against Poa annua (POAAN) ([2]; 1280 g/ha),Post-emergence action against Abutilon theophrasti (ABUTH) ([4]; 320 g/ha),Post-emergence action against Abutilon theophrasti (ABUTH) ([4]; 1280 g/ha),Post-emergence action against Amaranthus retroflexus (AMARE) ([5]; dosage 320 g/ha),Post-emergence action against Amaranthus retroflexus (AMARE) ([5]; dosage 1280 g/ha),Post-emergence action against Matricaria inodora (MATIN) [6],Post-emergence action against Stellaria media (STEME) ([7]; dosage 1280 g/ha),Post-emergence action against Alopecurus myosuroides (ALOMY) ([8]; 1280 g/ha),Post-emergence action against Digitaria sanguinalis (DIGSA) ([9]; dosage 1280 g/ha),Post-emergence action against Bassia scoparia (KCHSC) ([10]; dosage 1280 g/ha),Pre-emergence action against Setaria viridis (SETVI) ([14]; dosage 1280 g/ha),Pre-emergence action against Amaranthus retroflexus (AMARE) ([15]; dosage 320 g/ha),Pre-emergence action against Amaranthus retroflexus (AMARE) ([15]; dosage 1280 g/ha),Pre-emergence action against Stellaria media (STEME) ([17]; dosage 320 g/ha),Pre-emergence action against Stellaria media (STEME) ([17]; dosage 1280 g/ha),Pre-emergence action against Alopecurus myosuroides (ALOMY) ([18]; dosage 1280 g/ha),Pre-emergence action against Digitaria sanguinalis (DIGSA) ([19]; dosage 1280 g/ha),Pre-emergence action against Veronica persica (VERPE) ([20]; dosage 1280 g/ha),herbicidal activity against the harmful plants of Tables B1-B12 in post-emergence treatment [21],other results
FC(F)c1cc(-c2c(Br)cccc2Oc2ccc(Cl)cn2)on1 [Example 1-53],100%,100%,100%,100%,100%,100%,100%,90%,100%,100%,100%,100%,100%,100%,100%,100%,100%,100%,100%,very good herbicidal activity,Post-emergence action against Echinochloa crus-galli (ECHCG) ([1]; 320 g/ha): 100%; Post-emergence action against Echinochloa crus-galli (ECHCG) ([1]; 1280 g/ha): 100%; Post-emergence action against Setaria viridis (SETVI) [3]: 100%; Post-emergence action against Digitaria sanguinalis (DIGSA) ([9]; dosage 320 g/ha): 100%; Post-emergence action against Bassia scoparia (KCHSC) ([10]; dosage 320 g/ha): 90%; Pre-emergence action against Echinochloa crus-galli (ECHCG) [11]: 90%; Pre-emergence action against Lolium rigidum (LOLRI) ([12]; dosage 320 g/ha): 90%; Pre-emergence action against Lolium rigidum (LOLRI) ([12]; dosage 1280 g/ha): 100%; Pre-emergence action against Poa annua (POAAN) ([13]; dosage 320 g/ha): 100%; Pre-emergence action against Poa annua (POAAN) ([13]; dosage 1280 g/ha): 100%; Pre-emergence action against Setaria viridis (SETVI) ([14]; dosage 320 g/ha): 100%; Pre-emergence action against Matricaria inodora (MATIN) ([16]; dosage 320 g/ha): 100%; Pre-emergence action against Matricaria inodora (MATIN) ([16]; dosage 1280 g/ha): 100%; Pre-emergence action against Alopecurus myosuroides (ALOMY) ([18]; dosage 320 g/ha): 100%; Pre-emergence action against Veronica persica (VERPE) ([20]; dosage 320 g/ha): 100%; herbicidal activity against the harmful plants of Tables C1-C12 in pre-emergence treatment [22]: very good herbicidal activity
CCc1cccc(Oc2ccc(Cl)cn2)c1-c1cc(C(F)F)no1 [Example 1-59],100%,100%,100%,100%,90%,100%,100%,100%,100%,100%,90%,100%,100%,100%,100%,100%,100%,100%,100%,very good herbicidal activity,Post-emergence action against Stellaria media (STEME) ([7]; dosage 320 g/ha): 100%; Post-emergence action against Alopecurus myosuroides (ALOMY) ([8]; 320 g/ha): 100%; Post-emergence action against Digitaria sanguinalis (DIGSA) ([9]; dosage 320 g/ha): 100%; Post-emergence action against Veronica persica (VERPE) ([23]; dosage 320 g/ha): 100%; Post-emergence action against Veronica persica (VERPE) ([23]; dosage 1280 g/ha): 100%; Pre-emergence action against Echinochloa crus-galli (ECHCG) [11]: 90%; Pre-emergence action against Lolium rigidum (LOLRI) ([12]; dosage 1280 g/ha): 100%; Pre-emergence action against Setaria viridis (SETVI) ([14]; dosage 320 g/ha): 100%; Pre-emergence action against Abutilon theophrasti (ABUTH) [24]: 90%; Pre-emergence action against Alopecurus myosuroides (ALOMY) ([18]; dosage 320 g/ha): 100%; Pre-emergence action against Digitaria sanguinalis (DIGSA) ([19]; dosage 320 g/ha): 100%; Pre-emergence action against Veronica persica (VERPE) ([20]; dosage 320 g/ha): 100%; herbicidal activity against the harmful plants of Tables C1-C12 in pre-emergence treatment [22]: very good herbicidal activity
Cc1cc(C)c(-c2cc(C(F)F)no2)c(Oc2ncc(Cl)cc2F)c1 [Example 1-79],100%,100%,100%,100%,100%,100%,90%,100%,90%,100%,90%,100%,100%,100%,100%,100%,90%,100%,100%,very good herbicidal activity,Post-emergence action against Stellaria media (STEME) ([7]; dosage 320 g/ha): 100%; Post-emergence action against Bassia scoparia (KCHSC) ([10]; dosage 320 g/ha): 90%; Post-emergence action against Veronica persica (VERPE) ([23]; dosage 320 g/ha): 100%; Post-emergence action against Veronica persica (VERPE) ([23]; dosage 1280 g/ha): 100%; Pre-emergence action against Poa annua (POAAN) ([13]; dosage 320 g/ha): 90%; Pre-emergence action against Poa annua (POAAN) ([13]; dosage 1280 g/ha): 100%; Pre-emergence action against Abutilon theophrasti (ABUTH) [24]: 90%; Pre-emergence action against Matricaria inodora (MATIN) ([16]; dosage 320 g/ha): 100%; Pre-emergence action against Matricaria inodora (MATIN) ([16]; dosage 1280 g/ha): 100%; herbicidal activity against the harmful plants of Tables C1-C12 in pre-emergence treatment [22]: very good herbicidal activity
